Results: paper PMC9317966, “Structure-function analysis of the AMPK activator SC4 and identification of a potent pan AMPK activator” (Biochemical Journal, 2022)
pEC50: −log10 of the molar value.

Experiments:
Assay type in all cases: biochemical
[1] = biological target: T1, human GST-AMPK α1β1γ1 (Homo sapiens, UniProt Q13131+Q9Y478); assay: Radiolabel SAMS kinase assay, GST-AMPK from HEK293T/17 cells immobilised on glutathione-Sepharose; conditions: for Max. fold activation: immobilised α1β1γ1; for pEC50: immobilised α1β1γ1, 0–30 µM activator
T1 construct: triply transfected with full-length AMPK α1 or α2 (NH2-terminal GST fusion, pDEST27 vector); full-length AMPK α1 or α2 (NH2-terminal GST fusion, pDEST27 vector), β1 or β2 (COOH-terminal FLAG fusion, pcDNA3.1 vector); FLAG (C); made in house; host or cells: HEK293T/17 cells, transient triple transfection
From the text: We generated a series of compounds to investigate whether modification of the SC4 2-hydroxybiphenyl LHS fragment affects isoform selectivity, some of which (MSG008-MSG011) are presented in Table 1. We also synthesised compound MSG012 (example I-3-54 [32]), which was reported to activate α2β2γ1 with ∼100-fold greater potency compared with α1β1γ1. MSG012 differs from SC4 by substitution of the 2-hydroxyphenyl LHS fragment with 3-cyclohexen-4-yl-1-carboxylic acid, and 2-methylbenzoic acid RHS fragment with 1-hydroxy-N,N-dimethylcyclohexan-4-yl-1-carboxamide. Our initial screen involved measuring the activity of recombinant human GST-AMPK complexes expressed in HEK293T/17 cells and immobilised on glutathione-Sepharose (Supplementary Figure S1). Enzyme activity was measured by radiolabelling the synthetic SAMS peptide substrate in the absence or presence of 1 µM compound. Consistent with our previous characterisation, SC4 activated α1β1γ1, α2β1γ1 and α2β2γ1 >2.3-fold, and weakly activated α1β2γ1 1.3-fold (Figure 1A). […] The γ isoform had little influence on AMPK activation by MSG011 as most γ2 and γ3 complexes were activated >2.2-fold at 1 µM, with α1β2γ2 being the only exception (1.6-fold activation). […] Accordingly, MSG010, MSG011 and MSG012 can be classified as pan AMPK activators.
(§1) Adherent HEK293T/17 cells at ∼50% confluency were triply transfected with full-length AMPK α1 or α2 (NH2-terminal GST fusion, pDEST27 vector), β1 or β2 (COOH-terminal FLAG fusion, pcDNA3.1 vector), and γ1, γ2 or γ3 (NH2-terminal HA fusion, pMT2 vector) in the presence of FuGENE HD transfection reagent (Promega) as per the manufacturers protocol. Cells were harvested 48 hours post-transfection by first gently washing in ice cold phosphate buffered saline (PBS; Sigma–Aldrich), then scraping in ice cold lysis buffer (50 mM TRIS pH 7.5, 150 mM NaCl, 10% (v/v) glycerol, 50 mM NaF, 5 mM sodium pyrophosphate, 1% (v/v) Triton X-100, cOmplete protease inhibitor cocktail). Lysates were clarified by centrifugation (16 000g, 3 min, 4°C), flash frozen in liquid N2 and stored at −80°C until analysis. For radioactive kinase assays, AMPK was immobilised on glutathione Sepharose 4B resin (GE Healthcare) by incubation with lysates for 1.5 h at 4°C. Following centrifugation (1000g, 3 min, 4°C), the resin was washed twice in purification buffer (50 mM HEPES pH 7.4, 150 mM NaCl, 10% (v/v) glycerol, 0.02% (v/v) Tween-20), once in 50 mM HEPES pH 7.4 with 0.02% (v/v) Tween-20, then resuspended to a 50% slurry with 50 mM HEPES pH 7.4 and 10 µl added to the activity assays. For in solution kinase assays, α1β1γ1 AMPK was eluted from glutathione-Sepharose by incubating with purification buffer supplemented with 40 mM reduced glutathione (Sigma–Aldrich).
(§2) AMPK activity was determined by phosphorylation of the SAMS peptide (Purar Chemicals, sequence: NH2-HMRSAMSGLHLVKRR-COOH) in a 25 µl reaction volume containing 100 µM SAMS peptide, 5 mM MgCl2, 200 µM ATP, [γ-^32P]-ATP (PerkinElmer) and assay buffer (50 mM HEPES pH 7.4, 1 mM DTT and 0.02% (v/v) Tween-20) and purified AMPK. Phosphotransferase activity was conducted at 30°C for 10 min and reactions were quenched by spotting 15 µl onto phosphocellulose ion-exchange chromatography paper (made in-house), followed by repeated washes in 1% H3PO4 (Merck Millipore). Ultima Gold liquid scintillation fluid (5 ml; PerkinElmer) was added to vials containing dried phosphocellulose papers, and the level of ^32P-transfer to the SAMS peptide was determined using a Tri-Carb 2900TR liquid scintillation counter (PerkinElmer).

[2] = biological target: T2, GST-α1β1γ1 AMPK in solution (Homo sapiens, UniProt Q13131+Q9Y478); assay: In solution SAMS kinase assay, HEK293T/17-expressed GST-α1β1γ1 eluted from glutathione Sepharose; conditions: for pEC50: 0-30 µM activator
T2 construct: triply transfected with full-length AMPK α1 or α2 (NH2-terminal GST fusion, pDEST27 vector); full-length AMPK α1 or α2 (NH2-terminal GST fusion, pDEST27 vector), β1 or β2 (COOH-terminal FLAG fusion, pcDNA3.1 vector); FLAG (C); made in house; host or cells: HEK293T/17 cells, transient triple transfection
Experimental: as §1, §2
⍺1β1γ1 – in solution E. coli-expressed ⍺2β1γ1 […]
log [compound] (M) log [compound] (M)
Compound EC (nM) Max. fold Compound EC50 (nM) Max. fold
Supplementary Figure 3. In solution activation kinetics for AMPK complexes. Related to Figure 2. Activities measured in the presence of 0-30 µM AMPK activators. […]

[3] = biological target: T3, human GST-AMPK α1β2γ1 (Homo sapiens, UniProt O43741+Q13131); assay: Radiolabel SAMS kinase assay, GST-AMPK from HEK293T/17 cells immobilised on glutathione-Sepharose; conditions: for Max. fold activation: immobilised α1β2γ1; for pEC50: immobilised α1β2γ1, 0–30 µM activator
T3 construct: triply transfected with full-length AMPK α1 or α2 (NH2-terminal GST fusion, pDEST27 vector); full-length AMPK α1 or α2 (NH2-terminal GST fusion, pDEST27 vector), β1 or β2 (COOH-terminal FLAG fusion, pcDNA3.1 vector); FLAG (C); made in house; host or cells: HEK293T/17 cells, transient triple transfection

[4] = biological target: T4, human GST-AMPK α2β1γ1 (Homo sapiens, UniProt P54646+Q9Y478); assay: as above; conditions: for Max. fold activation: immobilised α2β1γ1; for pEC50: immobilised α2β1γ1, 0–30 µM activator
T4 construct: triply transfected with full-length AMPK α1 or α2 (NH2-terminal GST fusion, pDEST27 vector); full-length AMPK α1 or α2 (NH2-terminal GST fusion, pDEST27 vector), β1 or β2 (COOH-terminal FLAG fusion, pcDNA3.1 vector); FLAG (C); made in house; host or cells: HEK293T/17 cells, transient triple transfection

[5] = biological target: T5, human GST-AMPK α2β2γ1 (Homo sapiens, UniProt O43741+P54646); assay: as above; conditions: for Max. fold activation: immobilised α2β2γ1; for pEC50: immobilised α2β2γ1, 0–30 µM activator
T5 construct: triply transfected with full-length AMPK α1 or α2 (NH2-terminal GST fusion, pDEST27 vector); full-length AMPK α1 or α2 (NH2-terminal GST fusion, pDEST27 vector), β1 or β2 (COOH-terminal FLAG fusion, pcDNA3.1 vector); FLAG (C); made in house; host or cells: HEK293T/17 cells, transient triple transfection
T5 sequence (P54646 whole entry, the tested form may be a part): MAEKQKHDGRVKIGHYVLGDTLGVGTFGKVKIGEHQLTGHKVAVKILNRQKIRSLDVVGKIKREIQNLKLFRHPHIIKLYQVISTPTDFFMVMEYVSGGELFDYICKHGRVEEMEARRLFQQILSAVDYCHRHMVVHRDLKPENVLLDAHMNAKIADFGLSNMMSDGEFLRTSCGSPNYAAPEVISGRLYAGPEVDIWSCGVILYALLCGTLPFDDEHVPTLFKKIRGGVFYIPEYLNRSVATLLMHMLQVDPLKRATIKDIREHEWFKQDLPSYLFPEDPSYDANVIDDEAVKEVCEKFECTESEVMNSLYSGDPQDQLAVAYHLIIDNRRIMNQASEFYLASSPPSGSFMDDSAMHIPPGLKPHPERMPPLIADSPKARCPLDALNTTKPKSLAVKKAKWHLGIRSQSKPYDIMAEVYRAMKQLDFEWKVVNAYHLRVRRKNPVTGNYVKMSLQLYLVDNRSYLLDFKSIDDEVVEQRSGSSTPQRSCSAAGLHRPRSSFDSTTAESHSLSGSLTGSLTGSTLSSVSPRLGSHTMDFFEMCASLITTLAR
T5 sequence (O43741 whole entry, the tested form may be a part): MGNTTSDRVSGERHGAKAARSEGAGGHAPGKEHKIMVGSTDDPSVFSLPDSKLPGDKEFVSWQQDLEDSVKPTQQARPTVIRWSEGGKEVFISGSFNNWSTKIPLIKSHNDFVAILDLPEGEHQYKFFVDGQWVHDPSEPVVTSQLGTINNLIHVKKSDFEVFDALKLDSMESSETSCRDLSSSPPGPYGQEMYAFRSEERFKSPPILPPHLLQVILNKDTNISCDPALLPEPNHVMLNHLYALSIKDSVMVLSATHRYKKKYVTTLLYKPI
T5 sequence (P54619 whole entry partner, the tested form may be a part): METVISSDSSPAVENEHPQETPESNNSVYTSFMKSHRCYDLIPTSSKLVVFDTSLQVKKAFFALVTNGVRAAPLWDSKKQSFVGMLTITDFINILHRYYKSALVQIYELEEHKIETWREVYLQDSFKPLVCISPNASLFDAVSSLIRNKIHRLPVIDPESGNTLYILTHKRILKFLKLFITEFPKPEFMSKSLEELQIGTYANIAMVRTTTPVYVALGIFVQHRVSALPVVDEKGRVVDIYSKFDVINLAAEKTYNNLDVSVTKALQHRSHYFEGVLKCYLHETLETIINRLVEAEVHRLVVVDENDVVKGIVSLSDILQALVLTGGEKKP

T3 sequence (Q13131 whole entry, the tested form may be a part): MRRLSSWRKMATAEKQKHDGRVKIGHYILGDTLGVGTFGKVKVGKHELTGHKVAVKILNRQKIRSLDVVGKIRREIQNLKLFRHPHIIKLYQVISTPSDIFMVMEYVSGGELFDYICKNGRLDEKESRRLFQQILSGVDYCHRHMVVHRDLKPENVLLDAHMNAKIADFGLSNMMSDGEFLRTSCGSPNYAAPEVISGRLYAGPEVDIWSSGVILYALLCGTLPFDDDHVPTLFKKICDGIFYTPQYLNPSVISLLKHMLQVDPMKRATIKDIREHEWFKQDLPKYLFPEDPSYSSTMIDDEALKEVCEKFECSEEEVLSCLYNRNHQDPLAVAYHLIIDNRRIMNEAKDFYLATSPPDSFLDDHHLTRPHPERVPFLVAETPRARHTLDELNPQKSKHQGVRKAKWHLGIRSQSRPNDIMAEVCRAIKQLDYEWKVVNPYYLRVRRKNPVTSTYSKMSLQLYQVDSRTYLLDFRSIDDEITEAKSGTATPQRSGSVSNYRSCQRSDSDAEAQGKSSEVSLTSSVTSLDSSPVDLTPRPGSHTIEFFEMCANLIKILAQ
T3 sequence (O43741 whole entry, the tested form may be a part): as the sequence (O43741 whole entry, the tested form may be a part) above
T3 sequence (P54619 whole entry partner, the tested form may be a part): as the sequence (P54619 whole entry partner, the tested form may be a part) above
T1 sequence (Q13131 whole entry, the tested form may be a part): as the sequence (Q13131 whole entry, the tested form may be a part) above
T1 sequence (Q9Y478 whole entry, the tested form may be a part): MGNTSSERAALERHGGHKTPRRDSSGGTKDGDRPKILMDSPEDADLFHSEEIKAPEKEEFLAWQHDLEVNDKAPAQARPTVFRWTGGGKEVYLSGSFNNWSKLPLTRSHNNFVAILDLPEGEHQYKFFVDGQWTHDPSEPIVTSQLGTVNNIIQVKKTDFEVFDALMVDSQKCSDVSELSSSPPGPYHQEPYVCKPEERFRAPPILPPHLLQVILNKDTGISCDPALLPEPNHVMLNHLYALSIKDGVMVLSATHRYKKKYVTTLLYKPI
T1 sequence (P54619 whole entry partner, the tested form may be a part): as the sequence (P54619 whole entry partner, the tested form may be a part) above
T2 sequence (Q13131 whole entry, the tested form may be a part): as the sequence (Q13131 whole entry, the tested form may be a part) above
T2 sequence (Q9Y478 whole entry, the tested form may be a part): as the sequence (Q9Y478 whole entry, the tested form may be a part) above
T2 sequence (P54619 whole entry partner, the tested form may be a part): as the sequence (P54619 whole entry partner, the tested form may be a part) above
T4 sequence (P54646 whole entry, the tested form may be a part): as the sequence (P54646 whole entry, the tested form may be a part) above
T4 sequence (Q9Y478 whole entry, the tested form may be a part): as the sequence (Q9Y478 whole entry, the tested form may be a part) above
T4 sequence (P54619 whole entry partner, the tested form may be a part): as the sequence (P54619 whole entry partner, the tested form may be a part) above

SMILES | Max. fold activation [1] | pEC50 [1] | Max. fold activation [2] | pEC50 [2] | Max. fold activation [3] | pEC50 [3] | Max. fold activation [4] | pEC50 [4] | Max. fold activation [5] | pEC50 [5] | fold AMPK activation relative to vehicle ([1]; 1 µM compound)
O[C@@H]1CO[C@H]2[C@@H]1OC[C@H]2Oc1nc2nc(-c3ccc(-c4ccccc4)cc3)c(Cl)cc2[nH]1 [MK-8722, reference compound] | 2.2 fold | 5.92 | 1.8 fold | 5.76 | 4.4 fold | 5.66 | 7.8 fold | 5.49 | 5.8 fold | 5.25 | –
CC(=O)NC1CC=C(c2ccc(-c3nc4nc(Oc5ccc(C)c(C(=O)O)c5)[nH]c4cc3Cl)cc2)CC1 (stereo not drawn) [MSG011, 5-((5-(4′-Acetamido-2′,3′,4′,5′-tetrahydro-[1,1′-biphenyl]-4-yl)-6-chloro-1H-imidazo[4,5-b]pyridin-2-yl)oxy)-2-methylbenzoic acid] | 3.1 fold | 6.85 | 2.6 fold | 7.60 | 2.3 fold | 6.60 | 7.5 fold | 6.26 | 4.0 fold | 6.33 | > 2.2 fold
